Results as given in patent US20090281322A1, “THERAPEUTICALLY USEFUL SUBSTITUTED 1,7-DIPHENYL-1,2,3,5,6,7-HEXAHYDROPYRIDO[3,2,1-Ij]QUINOLINE COMPOUNDS” (ALLERGAN, INC., priority 2008, published 2009).

biological target: S1P3 receptor (Homo sapiens, UniProt Q99500); assay: in vitro activity in the S1P3 receptor; format: cell-based; conditions: not given
Method: The in vitro activity of these compounds in the S1P3 receptor was determined using the assay described in paragraph [0067] of United States Patent Application Publication No. 20070232682, which published on Oct. 4, 2007.

Sequence of S1P3 receptor (Q99500 whole entry): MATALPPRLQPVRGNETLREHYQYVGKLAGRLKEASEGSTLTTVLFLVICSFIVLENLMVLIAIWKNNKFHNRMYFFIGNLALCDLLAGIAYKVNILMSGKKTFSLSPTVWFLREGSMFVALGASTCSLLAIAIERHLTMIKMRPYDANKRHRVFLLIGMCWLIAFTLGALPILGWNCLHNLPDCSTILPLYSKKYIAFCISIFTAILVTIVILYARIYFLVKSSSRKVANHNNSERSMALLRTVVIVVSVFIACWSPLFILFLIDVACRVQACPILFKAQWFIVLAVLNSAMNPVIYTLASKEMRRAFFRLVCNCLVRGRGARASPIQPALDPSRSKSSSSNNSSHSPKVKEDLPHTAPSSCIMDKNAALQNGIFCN

Compound	S1P3 % Inhibition
CC#CCOC(=O)Nc1cc2c3c(c1)C(c1ccccc1)CCN3CCC2c1ccccc1 (stereo not drawn) [compound 353, But-2-ynyl 1,7-diphenyl-1,2,3,5,6,7-hexahydropyrido[3,2,1-ij]quinolin-9-ylcarbamate]	98%
C=CCCOC(=O)Nc1cc2c3c(c1)C(c1ccccc1)CCN3CCC2c1ccccc1 (stereo not drawn) [compound 354, But-3-enyl 1,7-diphenyl-1,2,3,5,6,7-hexahydropyrido[3,2,1-ij]quinolin-9-ylcarbamate]	97%

same assay, conditions: Activity potency nM, (IC50)

Compound	IC50
CCCOC(=O)Nc1cc2c3c(c1)C(c1ccccc1)CCN3CCC2c1ccccc1 (stereo not drawn) [compound 275, Propyl 1,7-diphenyl-1,2,3,5,6,7-hexahydropyrido[3,2,1-ij]quinolin-9-ylcarbamate]	12.2 nM
O=C(Nc1cc2c3c(c1)C(c1ccccc1)CCN3CCC2c1ccccc1)OCCCCl (stereo not drawn) [compound 205, 3-chloropropyl 1,7-diphenyl-1,2,3,5,6,7-hexahydropyrido[3,2,1-ij]quinolin-9-ylcarbamate]	8 nM
CCCCNC(=O)Nc1cc2c3c(c1)C(c1ccccc1)CCN3CCC2c1ccccc1 (stereo not drawn) [compound 485, 1-Butyl-3-(1,7-diphenyl-1,2,3,5,6,7-hexahydropyrido[3,2,1-ij]quinolin-9-yl)urea]	52 nM
O=C(Nc1cc2c3c(c1)C(c1ccccc1)CCN3CCC2c1ccccc1)OCc1ccccc1 (stereo not drawn) [compound 278, Benzyl 1,7-diphenyl-1,2,3,5,6,7-hexahydropyrido[3,2,1-ij]quinolin-9-ylcarbamate]	66 nM
CCNC(=O)Nc1cc2c3c(c1)C(c1ccccc1)CCN3CCC2c1ccccc1 (stereo not drawn) [compound 484, 1-(1,7-diphenyl-1,2,3,5,6,7-hexahydropyrido[3,2,1-ij]quinolin-9-yl)-3-ethylurea]	77 nM
CCCCCCNC(=S)Nc1cc2c3c(c1)C(c1ccccc1)CCN3CCC2c1ccccc1 (stereo not drawn) [compound 256, 1-(1,7-diphenyl-1,2,3,5,6,7-hexahydropyrido[3,2,1-ij]quinolin-9-yl)-3-hexylthiourea]	78 nM
O=C(Nc1cc2c3c(c1)C(c1ccccc1)CCN3CCC2c1ccccc1)N1CCOCC1 (stereo not drawn) [compound 983, N-(1,7-diphenyl-1,2,3,5,6,7-hexahydropyrido[3,2,1-ij]quinolin-9-yl)morpholine-4-carboxamide]	130 nM
O=C(Nc1cc2c3c(c1)C(c1ccccc1)CCN3CCC2c1ccccc1)OCCF (stereo not drawn) [compound 095, 2-fluoroethyl 1,7-diphenyl-1,2,3,5,6,7-hexahydropyrido[3,2,1-ij]quinolin-9-ylcarbamate]	56 nM
CCCOC(=O)Nc1cc2c3c(c1)C(c1cccc(F)c1)CCN3CCC2c1cccc(F)c1 (stereo not drawn) [compound 094, Propyl 1,7-bis(3-fluorophenyl)-1,2,3,5,6,7-hexahydropyrido[3,2,1-ij]quinolin-9-ylcarbamate]	234 nM
CN(C)C(=O)Nc1cc2c3c(c1)C(c1ccccc1)CCN3CCC2c1ccccc1 (stereo not drawn) [compound 405, 3-(1,7-diphenyl-1,2,3,5,6,7-hexahydropyrido[3,2,1-ij]quinolin-9-yl)-1,1-dimethylurea]	131 nM
CCCCOC(=O)Nc1cc2c3c(c1)C(c1cccc(F)c1)CCN3CCC2c1cccc(F)c1 (stereo not drawn) [compound 202, Butyl 1,7-bis(3-fluorophenyl)-1,2,3,5,6,7-hexahydropyrido[3,2,1-ij]quinolin-9-ylcarbamate]	272 nM
O=C(Nc1cc2c3c(c1)C(c1ccccc1)CCN3CCC2c1ccccc1)Oc1ccccc1 (stereo not drawn) [compound 277, Phenyl 1,7-diphenyl-1,2,3,5,6,7-hexahydropyrido[3,2,1-ij]quinolin-9-ylcarbamate]	901 nM
C#CCOC(=O)Nc1cc2c3c(c1)C(c1ccccc1)CCN3CCC2c1ccccc1 (stereo not drawn) [compound 352, Prop-2-ynyl 1,7-diphenyl-1,2,3,5,6,7-hexahydropyrido[3,2,1-ij]quinolin-9-ylcarbamate]	40 nM
C=CCNC(=O)Nc1cc2c3c(c1)C(c1ccccc1)CCN3CCC2c1ccccc1 (stereo not drawn) [compound 773, 1-allyl-3-(1,7-diphenyl-1,2,3,5,6,7-hexahydropyrido[3,2,1-ij]quinolin-9-yl)urea]	160 nM
O=C(Nc1cc2c3c(c1)C(c1ccccc1)CCN3CCC2c1ccccc1)OCCCCCl (stereo not drawn) [compound 206, 4-chlorobutyl 1,7-diphenyl-1,2,3,5,6,7-hexahydropyrido[3,2,1-ij]quinolin-9-ylcarbamate]	62 nM
CC#CCOC(=O)Nc1cc2c3c(c1)C(c1ccccc1)CCN3CCC2c1ccccc1 (stereo not drawn) [compound 353, But-2-ynyl 1,7-diphenyl-1,2,3,5,6,7-hexahydropyrido[3,2,1-ij]quinolin-9-ylcarbamate]	13 nM
CC(C)(C)NC(=O)Nc1cc2c3c(c1)C(c1ccccc1)CCN3CCC2c1ccccc1 (stereo not drawn) [compound 148, 1-tert-butyl-3-(1,7-diphenyl-1,2,3,5,6,7-hexahydropyrido[3,2,1-ij]quinolin-9-yl)urea]	38 nM
CCCCCCNC(=O)Nc1cc2c3c(c1)C(c1ccccc1)CCN3CCC2c1ccccc1 (stereo not drawn) [compound 487, 1-(1,7-diphenyl-1,2,3,5,6,7-hexahydropyrido[3,2,1-ij]quinolin-9-yl)-3-hexylurea]	301 nM
CCCNC(=S)Nc1cc2c3c(c1)C(c1ccccc1)CCN3CCC2c1ccccc1 (stereo not drawn) [compound 255, 1-(1,7-diphenyl-1,2,3,5,6,7-hexahydropyrido[3,2,1-ij]quinolin-9-yl)-3-propylthiourea]	153 nM
O=C(NCCCl)Nc1cc2c3c(c1)C(c1ccccc1)CCN3CCC2c1ccccc1 (stereo not drawn) [compound 769, 1-(2-chloroethyl)-3-(1,7-diphenyl-1,2,3,5,6,7-hexahydropyrido[3,2,1-ij]quinolin-9-yl)urea]	374 nM
CC(C)COC(=O)Nc1cc2c3c(c1)C(c1ccccc1)CCN3CCC2c1ccccc1 (stereo not drawn) [compound 274, Isobutyl 1,7-diphenyl-1,2,3,5,6,7-hexahydropyrido[3,2,1-ij]quinolin-9-ylcarbamate]	64 nM
COC(=O)Nc1cc2c3c(c1)C(c1cccc(F)c1)CCN3CCC2c1cccc(F)c1 (stereo not drawn) [compound 779, Methyl 1,7-bis(3-fluorophenyl)-1,2,3,5,6,7-hexahydropyrido[3,2,1-ij]quinolin-9-ylcarbamate]	23 nM
C=CCCOC(=O)Nc1cc2c3c(c1)C(c1ccccc1)CCN3CCC2c1ccccc1 (stereo not drawn) [compound 354, But-3-enyl 1,7-diphenyl-1,2,3,5,6,7-hexahydropyrido[3,2,1-ij]quinolin-9-ylcarbamate]	16 nM
COC(=O)Nc1cc2c3c(c1)C(c1ccccc1)CCN3CCC2c1ccccc1 (stereo not drawn) [compound 272, methyl 1,7-diphenyl-1,2,3,5,6,7-hexahydropyrido[3,2,1-ij]quinolin-9-ylcarbamate]	8.3 nM
O=C(NCc1ccoc1)Nc1cc2c3c(c1)C(c1ccccc1)CCN3CCC2c1ccccc1 (stereo not drawn) [compound 258, 1-(1,7-diphenyl-1,2,3,5,6,7-hexahydropyrido[3,2,1-ij]quinolin-9-yl)-3-(furan-3-ylmethyl)urea]	59 nM
CCCCOC(=O)Nc1cc2c3c(c1)C(c1ccccc1)CCN3CCC2c1ccccc1 (stereo not drawn) [compound 276, Butyl 1,7-diphenyl-1,2,3,5,6,7-hexahydropyrido[3,2,1-ij]quinolin-9-ylcarbamate]	8.7 nM
CCOC(=O)Nc1cc2c3c(c1)C(c1cccc(F)c1)CCN3CCC2c1cccc(F)c1 (stereo not drawn) [compound 093, Ethyl 1,7-bis(3-fluorophenyl)-1,2,3,5,6,7-hexahydropyrido[3,2,1-ij]quinolin-9-ylcarbamate]	48 nM
CCOC(=O)Nc1cc2c3c(c1)C(c1ccccc1)CCN3CCC2c1ccccc1 (stereo not drawn) [compound 273, Ethyl 1,7-diphenyl-1,2,3,5,6,7-hexahydropyrido[3,2,1-ij]quinolin-9-ylcarbamate]	63 nM
